Results reported in US9745339B2 (GRAFFINITY PHARMACEUTICALS GMBH, priority 2012, dated 2017).

Legend:
Palivizumab = assay: Microtiter plate chromatography of resins: binding and elution of Palivizumab
Description: (§1) Resins were assessed in packed mode by microtiter plate chromatography. For each column, approximately 30 μl of resin were transferred to a 384-well filter plate and sealed with appropriate top fits. Columns with rProtein A SEPHAROSE 4 FF and MABSORBENT A2P HF were included as controls.
(§2) Either 3.3 cv of whole IgGs dissolved at 0.5 mg ml^−1 in PBS or undiluted host cell proteins (HCP) were injected onto columns.
(§3) Unbound protein was washed from columns with 5 cv of PBS prior to elution with 5 cv of glycine buffer at pH 2.5. […] During injection of samples, speed was reduced to 10 g and centrifugation time increased to 5-10 min. Effluent fractions were collected in 384-well plates and concentrations of protein were analyzed by Bradford assay. Protein masses mi, mft and me (see below) were calculated as the product of fraction volume and measured protein concentration.
(§4) The fraction of bound protein was calculated as the difference between the total mass of protein injected mi and the mass of protein detected in the flowthrough mft, divided by the total mass of protein injected.
(§5) The yield of protein was calculated as the mass of protein eluted me, divided by the mass of protein injected mi.
(§6) The fraction of bound protein and the yield of protein were calculated for each resin based on data for whole IgG-antibodies. In the case of host cell proteins, only the fraction of bound protein is given. Selectivity of resins was calculated from data for Bevacizumab whole IgG and host cell proteins. Due to limited experimental precision, selectivity was truncated for values beyond 10.

Cetuximab = assay: Microtiter plate chromatography of resins: binding and elution of Cetuximab
Description: as §1, §2, §3, §4, §5, §6

Tocilizumab = assay: Microtiter plate chromatography of resins: binding and elution of Tocilizumab
Description: as §1, §2, §3, §4, §5, §6

[1] = system: poly-IgG from human serum (h-poly-IgG); assay: Microtiter plate chromatography of resins: binding and elution of human poly-IgG
Description: as §1, §2, §3, §4, §5, §6

Bevacizumab [2] = assay: Microtiter plate chromatography of resins: binding and elution of Bevacizumab; settings: fraction of bound Bevacizumab divided by fraction of bound HCP; truncated for values beyond 10
Description: as §1, §2, §3, §4, §5
(§7) The selectivity of resins was calculated as the fraction of bound Bevacizumab antibody BAb, divided by the fraction of bound host cell proteins BHCP.
as §6

Bevacizumab [3] = molecular target: T1, Bevacizumab (Homo sapiens, UniProt P01857); assay: as above
T1 construct: 0.5 mg/ml IgG in PBS pH 7.3; ligand immobilized on SEPHAR; Bevacizumab Yield; other: mass eluted (glycine pH 2.5) / mass injected; kd (dissociation constant, Langmuir isotherm); other: Bevacizumab 0.05-5 mg/ml in PBS pH 7.3, 25° C., at least 3 h; qm (maximum capacity); other: mg Bevacizumab per ml of resin; Langmuir isotherm; t0; fused on or other part: Humanized anti-VEGF-A VH domain joined N-terminally to the IGHG1 constant region (engineered, no UniProt entry)
Description: as §1, §2, §3, §4, §5, §7, §6

host cell proteins (HCP) = assay: Microtiter plate chromatography of resins: binding of host cell proteins; design: species or system CHO cell culture
Description: Flowthrough from protein A chromatography (referred to as host cell proteins) was derived from the supernatant of antibody-producing CHO cell culture in serum-free medium. Coomassie brilliant blue dye reagent for Bradford assay was purchased from Thermo Scientific (Bonn/Germany).
as §1, §2, §3, §4, §6

Bevacizumab [4] = molecular target: T1, Bevacizumab; assay: Langmuir isotherms by batch adsorption; type: binding; settings: read-out: kd (dissociation constant, Langmuir isotherm); Bevacizumab 0.05-5 mg/ml in PBS pH 7.3, 25° C., at least 3 h
Description: Experiments were performed with Bevacizumab as antibody. Parameters of Langmuir isotherms for purified antibody were determined by batch adsorption experiments in 96-well microtiter plates. In each well, 10 μl of sorbent slurry (50% v/v) were mixed with 100 μl of protein solution. Initial concentrations varied from 0.05-5 mg/ml in phosphate-buffered saline (0.15 M NaCl, 20 mM phosphate buffer, pH 7.3; PBS). Reactions were agitated vigorously at 25° C. for at least 3 h. Afterwards, antibody concentration in the supernatants were measured by Bradford assay. Data was evaluated by direct fitting of the values with the Langmuir isotherm equation (1).
Parameters of Langmuir isotherms, i.e. dissociation constants Kd and maximum capacities qm, were determined from the measured concentrations in the supernatants. Parameters were estimated by numerical fitting of the model equation derived by Chase (1)

[5] = fraction of injected protein bound, 0.5 mg/ml IgG in PBS pH 7.3
[6] = fraction of injected protein bound, 0.5 mg/ml IgG in PBS pH 7.3, ligand immobilized on SEPHAROSE 4 FF
[7] = mass eluted (glycine pH 2.5) / mass injected
[8] = fraction of injected undiluted host cell proteins bound
[9] = L55-73: estimated values based on the knowledge obtained from L01-L54

Row | SMILES | Palivizumab Bound (Palivizumab; [5]) [%] | Cetuximab Bound (Cetuximab; [5]) [%] | Tocilizumab Bound (Tocilizumab; [5]) [%] | h-poly-IgG Bound [1, 5] [%] | Selectivity (Bevacizumab [2]) | Bevacizumab Bound (Bevacizumab [3]; [6]) [%] | Bevacizumab Yield (Bevacizumab [3]; [7]) [%] | HCP Bound (host cell proteins (HCP); [8]) [%] | Kd (Bevacizumab [4]) [µM] | Palivizumab Bound (Palivizumab; [9]) [%] | Cetuximab Bound (Cetuximab; [9]) [%] | Tocilizumab Bound (Tocilizumab; [9]) [%] | h-poly-IgG Bound [1, 9] [%] | Bevacizumab Bound (Bevacizumab [3]; [9]) [%] | Bevacizumab Yield (Bevacizumab [3]; [9]) [%] | HCP Bound (host cell proteins (HCP); [9]) [%]
1 | NCCCn1cnc2cc(C(=O)Nc3nc4c(s3)CCC4)ccc21 [Ligand L32, 1-(3-Amino-1-propyl)benzimidazole-5-carboxylic acid N-(5,6-dihydro-(4H)-cyclopentathiazol-2-yl) amide] | 91 | 100 | 100 | 91 | 2.3 | 100 | 103 | 44 | – | – | – | – | – | – | – | –
2 | NCCCn1cnc2cc(C(=O)Nc3nnc(-c4ccncc4)s3)ccc21 [Ligand L21, 1-(3-Amino-1-propyl)benzimidazole-5-carboxylic acid N-[5-(4-pyridyl)-1,3,4-thiadiazol-2-yl]amide] | 85 | 100 | 98 | 82 | 10.0 | 100 | 100 | 2 | – | – | – | – | – | – | – | –
3 | NCCCn1cnc2cc(C(=O)Nc3nnc(C4CC4)s3)ccc21 [Ligand L35, 1-(3-Amino-1-propyl)benzimidazole-5-carboxylic acid N-(2-cyclopropyl-1,3,4-thiadiazol-5-yl) amide] | 100 | 100 | 100 | 100 | 3.4 | 100 | 104 | 29 | – | – | – | – | – | – | – | –
4 | Cn1nc(C(=O)Nc2ccc3c(c2)C(=O)N(CCCN)CCO3)c2ccccc21 [Ligand L03, 4-(3-Amino-1-propyl)-7-[(1-methylindazol-3-yl)carboxamido]-2,3,4,5-tetrahydrobenzo[f][1,4]oxazepin-5-one] | 78 | 99 | 99 | – | 2.2 | 100 | 92 | 45 | – | – | – | – | – | – | – | –
5 | NCCCn1cc(-c2ccc(C(=O)Nc3nnc(-c4ccco4)s3)cc2)nn1 [Ligand L48] | – | – | – | – | – | 100 | – | – | 713 | – | – | – | – | – | – | –
6 | NCCCn1cnc2cc(C(=O)Nc3nc4ccccc4s3)ccc21 [Ligand L10, 1-(3-Amino-1-propyl)benzimidazole-5-carboxylic acid N-(benzothiazol-2-yl) amide] | 100 | 100 | 100 | 100 | 2.2 | 100 | 100 | 45 | – | – | – | – | – | – | – | –
7 | Cn1nc(NC(=O)c2ccc3c(c2)nnn3CCCN)c2ccccc21 [Ligand L06, 1-(3-Amino-1-propyl)benzotriazole-5-carboxylic acid N-(1-methylindazol-3-yl) amide] | 74 | – | – | – | 3.2 | 100 | 84 | 31 | – | – | – | – | – | – | – | –
8 | NCCCn1cnc2cc(C(=O)Nc3ncc(-c4ccco4)s3)ccc21 [Ligand L58, 1-(3-Amino-1-propyl)benzimidazole-5-carboxylic acid N-[5-(2-furyl)thiazol-2-yl] amide] | – | – | – | – | – | – | – | – | – | >80 | 100 | >95 | >80 | 100 | >80 | <40
9 | CCc1nc2cc(C(=O)Nc3ccc(-c4ccco4)nn3)ccc2n1CCCN [Ligand L69, 1-(3-Amino-1-propyl)-2-ethylbenzimidazole-5-carboxylic acid N-[6-(2-furyl)pyridazin-3-yl]amide] | – | – | – | – | – | – | – | – | – | >60 | >95 | >90 | >80 | 100 | >80 | <30
10 | CCc1nc2cc(C(=O)Nc3nc(-c4ccco4)cs3)ccc2n1CCCN [Ligand L67, 1-(3-Amino-1-propyl)-2-ethylbenzimidazole-5-carboxylic acid N-[4-(2-furyl)thiazol-2-yl] amide] | – | – | – | – | – | – | – | – | – | >80 | 100 | >95 | >80 | 100 | >80 | <30
11 | Cc1nc2cc(C(=O)Nc3nnc(-c4ccoc4)s3)ccc2n1CCCN [Ligand L61, 1-(3-Amino-1-propyl)-2-methylbenzimidazole-5-carboxylic acid N-[5-(3-furyl)-1,3,4-thiadiazol-2-yl] amide] | – | – | – | – | – | – | – | – | – | >80 | 100 | >95 | >80 | 100 | >80 | <40
12 | CCc1nc2cc(C(=O)Nc3ncc(-c4ccco4)s3)ccc2n1CCCN [Ligand L68, 1-(3-Amino-1-propyl)-2-ethylbenzimidazole-5-carboxylic acid N-[5-(2-furyl)thiazol-2-yl] amide] | – | – | – | – | – | – | – | – | – | >80 | 100 | >95 | >80 | 100 | >80 | <30
13 | NCCCn1cnc2cc(C(=O)Nc3nc(-c4ccco4)cs3)ccc21 [Ligand L57, 1-(3-Amino-1-propyl)benzimidazole-5-carboxylic acid N-[4-(2-furyl)thiazol-2-yl] amide] | – | – | – | – | – | – | – | – | – | >80 | 100 | >95 | >80 | 100 | >80 | <40
